The results in this text go back to patent publication US20090325923A1, “NEW METHOD FOR THE TREATMENT OF INFLAMMATORY DISEASES” (TOPOTARGET SWITZERLAND SA, priority 2006, published 2009).

The assay deals with Human monocytic cell line THP-1. As to the kind of experiment: LPS-stimulated cytokine secretion by ELISA in THP-1 cells. It counts as cell-based. The settings on record: THP-1, overnight increasing doses of FK866, LPS 6 h. The procedure: Human monocytic cell line THP-1 was cultured overnight in the presence of graded doses of nicotinic acid (NA), a precursor of NAD, and then stimulated with lipopolysaccharide (LPS) from gram-negative bacteria for 2 h. The cell supernatant was tested for tumor necrosis factor (TNF) content by ELISA and the intracellular pool of NAD was measured by an enzymatic assay.
Human monocytic cell line THP-1, human peripheral blood mononuclear cells (PBMC), human monocyte-derived dendritic cells, or mouse peritoneal macrophages were isolated and cultured overnight with increasing doses of FK866, and then stimulated with LPS for 6 h. The culture supernatants were tested for TNF and IL-6 content by ELISA
THP-1 cells were incubated in the presence of 10 nM FK866 and graded doses of NMN. Cells were further stimulated with LPS and intracellular NAD levels and TNFα secretion were determined using standard assays.
This example illustrates the direct relationship between NAD levels in cells and pro-inflammatory cytokine secretion. Human monocytic cell line THP-1 was cultured overnight in the presence of nicotinic acid, a precursor of NAD, and then stimulated with lipopolysaccharide (LPS) from gram-negative bacteria for 2 h. The cell supernatant was tested for tumor necrosis factor (TNF) content by ELISA and the intracellular pool of NAD was measured by an enzymatic assay.
This example describes the inhibition of pro-inflammatory cytokines production by the competitive small molecular weight compound inhibitor of NMPRT, ((E)-N-[4-(1-benzoylpiperidin-4-yl)butyl]-3-(pyridin-3-yl)acrylamide, designated FK866). Human monocytic cell line THP-1, human peripheral blood mononuclear cells (PBMC), human monocyte-derived dendritic cells, or mouse peritoneal macrophages were isolated and cultured overnight with increasing doses of FK866, and then stimulated with LPS for 6 h. The culture supernatants were tested for TNF and IL-6 content by ELISA.
This example illustrates that NAMPT is the only molecular target of FK866. […]
Background: ELISA stands for enzyme-linked immunosorbent assay.

With `O=C(/C=C/c1cccnc1)NCCCCC1CCN(C(=O)c2ccccc2)CC1` [FK866, (E)-N-[4-(1-benzoylpiperidin-4-yl)butyl]-3-(pyridine-3-yl)-acrylamide], the “cytokine secretion (TNF and IL-6)” value was “inhibited cytokine secretion in a dose-dependent fashion”.
